In one series the target is T1, ENL (Homo sapiens, UniProt Q03111).
T1 construct: against AF9(497-568) and ENL (489-559) proteins running different tested concentrations over CM5 chip; MBP (pMSCG9-LIC vector); made in house; host or cells: Escherichia coli BL21 (DE3)
T1 sequence (Q03111 489-559): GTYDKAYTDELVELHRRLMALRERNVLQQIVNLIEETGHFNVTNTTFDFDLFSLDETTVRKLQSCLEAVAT
The series can be described thus: SPR competitive binding assay of small molecules, ENL. Particulars: SPR competitive based assay; read-out: ENL IC50 ± SD. From the text: (§1) To further validate the binding of the confirmed compounds and identify potential promiscuous inhibitors, several secondary assays have been developed to support hit confirmation and the hit-to-probe optimization process. In order to determine that the compounds bind effectively to the target and disrupt protein-protein interaction, a SPR competitive binding assay was used. This assay uses a platform that differs from the FP-based assay where DOT1L recombinant protein (residues […]) is immobilized on a CM5 chip, allowing for testing of the inhibitors for their ability to disrupt AF9-DOT1L protein-protein interactions.
This class of compounds was also tested for their binding against ENL protein, which is highly homologous with AF9.

Series [1] deals with T2, AF9 (Homo sapiens, UniProt P42568).
T2 sequence (P42568 1-568): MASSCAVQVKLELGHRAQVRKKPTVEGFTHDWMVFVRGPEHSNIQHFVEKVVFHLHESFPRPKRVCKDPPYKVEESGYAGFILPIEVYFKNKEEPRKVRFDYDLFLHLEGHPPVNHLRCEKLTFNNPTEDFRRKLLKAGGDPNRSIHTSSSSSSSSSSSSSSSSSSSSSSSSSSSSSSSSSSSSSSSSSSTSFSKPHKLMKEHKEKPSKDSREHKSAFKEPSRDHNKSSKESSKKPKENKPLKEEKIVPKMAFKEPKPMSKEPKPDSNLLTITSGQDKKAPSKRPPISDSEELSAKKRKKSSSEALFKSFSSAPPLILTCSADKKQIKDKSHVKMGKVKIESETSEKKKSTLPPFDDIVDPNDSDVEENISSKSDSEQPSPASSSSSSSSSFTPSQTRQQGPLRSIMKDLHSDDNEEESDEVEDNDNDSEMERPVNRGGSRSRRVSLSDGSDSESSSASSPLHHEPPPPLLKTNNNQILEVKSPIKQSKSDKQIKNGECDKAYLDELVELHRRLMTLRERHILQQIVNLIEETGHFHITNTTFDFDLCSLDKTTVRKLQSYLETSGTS
The series can be described thus: Saturation Transfer Difference (STD) NMR. The format is binding. On the procedure: (§2) C) Globally fitted concentration series of 38 (100, 50, 25, 12.5 and 6.25 μM) binding to immobilized AF9 using OctetRed System (see Example 12).
(§3) To provide further validation of the hit selection in addition to the biochemical assays Saturation Transfer Difference (STD), NMR spectroscopy was used. NMR spectroscopy has been successfully utilized to detect and characterize the direct binding of small-molecule compounds to large biomolecules. This technique is also allowing characterization of the binding interactions and maps the ligand-protein contacts in the bound state, delineating which chemical moieties of the ligand molecule are key for molecular recognition by the protein (group epitope mapping, FIG. 20A). […] The direct binding of 38 was also confirmed with ThermoFluor biophysical binding assay. ThermoFluor exploits a well-known biophysical phenomenon where small changes in the intrinsic melting temperature of proteins in the presence of ligands are related to the equilibrium-binding constant. Compounds that interact with the native form of the protein will shift the equilibrium to the left, increasing the Tm, the temperature at which half the protein is unfolded. In the presence of compound 38, the Tm of MBP-AF9 protein increases in a dose-dependent manner, giving ΔTm of 1.2 degree in […] (FIG. 20B).

Another series addresses T3, MBP-AF9 (Homo sapiens, UniProt P42568).
T3 sequence (P42568 497-568): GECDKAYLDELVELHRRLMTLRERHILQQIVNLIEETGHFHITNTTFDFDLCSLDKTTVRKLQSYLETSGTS
Nature of the series: ThermoFluor binding assay, MBP-AF9. The protocol:
as §2, §3

The next series addresses MBP tag (Escherichia coli, UniProt P0AEX9). Nature of the series: ThermoFluor binding assay, MBP tag only. On the technique in general: DSF heats the sample and reads unfolding from a dye or from intrinsic fluorescence.
Series [2] addresses T2, AF9. Nature of the series: OctetRed Bio-Layer Interferometry binding to immobilized AF9. The settings on record: OctetRed BLI. On the procedure:
as §2
Finally, an orthogonal measure of the disruption of the DOT1L/AF9 protein interaction was obtained using OctetRed system with Bio-Layer Interferometry (BLI) technology. This technology is allowing label-free, real-time biomolecular analysis and determination of binding kinetics and affinity. […] Using global fitting of the binding data in several tested concentrations, the kinetic parameters were calculated. The observed KD values ranged from 10 μM to 50 μM, consistent with the KD from steady state calculations.

Series [3] has as its system MLL-AF9 transformed mouse cells. Nature of the series: Cell growth of MLL-AF9 transformed mouse cells. Particulars: 216 h. The format is cell-based. From the text:
(§4) FIG. 23 presents cell growth curves of A) MLL-AF9 and B) Hoxa9/Meis1 transformed mouse cells and C) adult LSKs after treatment with 38. D) H3K79 methylation after 6 days treatment with 38 and EPZ004777 DOT1L inhibitor (see, e.g., Daigle, et al., Cancer Cell 20, 53-65 (2011)).
(§5) This example involves the assessment of cellular effects of compound 38. […] Compound 38 inhibited growth of MLL-AF9 cells in a dose-dependent manner (FIG. 23A), with cell growth inhibition starting after 4 days of treatment. […] The hypothesis predicts that compounds that can block the DOT1L recruitment, but not its catalytic activity, will not affect normal hematopoiesis, as well as the global level of H3K79 methylation. To test this hypothesis, the toxicity of compound 38 was tested on purified LSK (lin-sca-1+ckit+) progenitors from adult wild type mice (FIG. 23C).

The test system of series [4] is HM2 cells stably expressing Hoxa9 and Meis 1. The series can be described thus: Cell growth of HM2 (Hoxa9/Meis1) cells. The format is cell-based, mouse.
From the text: as §4, §5

For series [5], the system named is LSK (lin-sca-1+ckit+) progenitors. Nature of the series: Toxicity on purified adult LSK progenitors. The format is cell-based, mouse. Particulars: 50 μM and 25 μM, up to seven days in culture.
From the text: as §4, §5

For the next series, the system named is H3K79 methylation. Nature of the series: Global H3K79 methylation in MLL-AF9 transformed cells. In kind it is cell-based, mouse. The settings on record: 6 days treatment of MLL-AF9 transformed cells.
From the text: as §4, §5

For series [6], the target named is T4, AF9 (Homo sapiens, UniProt P42568).
T4 sequence (P42568 497-568): T3 sequence (P42568 497-568)
Nature of the series: SPR competitive binding assay of small molecules, AF9-DOT1L. The settings on record: SPR competitive based assay; read-out: AF9 IC50 ± SD. On the set-up: against AF9(497-568) and ENL (489-559) proteins running different tested concentrations over CM5 chip; GB1 (pGB1-LIC vector); made in house; host or cells: Escherichia coli BL21 (DE3).
From the text: Several secondary assays have already been developed to support hit confirmation and the hit-to-probe optimization process. The established and optimized SPR-based competitive assay utilizing DOT1L protein (826-1095) immobilized on the CM5 sensor chip was used as a secondary counter screen assay to validate binding of compounds to AF9. […] Both assays gave similar IC50 values.
as §1

Usually IC50 stands for the concentration needed to halve the response being measured. A word on the Kd: it is a measure of binding affinity in units of concentration. The term inhibition denotes the share of the control response that was lost under treatment. High values mean a response far below the control, low ones a response near the control.

Read-outs that look alike come from different tables or passages of the source.

In the case of `CCc1ccc(S(=O)(=O)N2c3ccccc3NC3=C(C(=O)CCC3)C2c2ccco2)cc1` (racemic) [Compound 38], the results for the IC50 at ENL and on AF9 [6] were 30.7 ± 7.7 µM and 40 ± 1.5 µM, respectively. Moreover, the “STD effects (direct binding to AF9)” value at AF9 [1] is recorded as “strong STD effects”. At MBP-AF9, the “ΔTm of MBP-AF9 protein” value is 1.2 degree. For the same compound, the “thermal stability of tag MBP only” value at MBP tag was “did not show any changes in thermal stability”. The Kd on AF9 [2] (several tested concentrations, read-out: KD values, global fitting of binding data) is 10 to 50 µM; on AF9 [2] (read-out: binding affinity (KD), steady state analysis), 35 µM. In series [3] (day 9, 25 μM), this compound had an inhibition at 25 µM of 50%. Moreover, the inhibition at 50 µM in series [3] (day 9, 50 μM) is approximately 90%. Besides, in series [4], the “cell growth of HM2 cells” value is on record as “not affected”. The “toxicity / growth inhibition of adult LSKs” value in [5] is reported as “not toxic to normal hematopoiesis”. Besides, the “global H3K79 methylation level” value in the series on H3K79 methylation is given as “not affected”.

(Values after patent publication US9862746B2, “Compositions and methods relating to hindering DOT1L recruitment by MLL-fusion proteins” (The Regents of the University of Michigan, priority 2013, dated 2018).)
